ChEMBL document CHEMBL4627350, “Drug repurposing and rediscovery: Design, synthesis and preliminary biological evaluation of 1-arylamino-3-aryloxypropan-2-ols as anti-melanoma agents” (Bioorg Med Chem, 2020)
pIC50: −log10 of the molar value. Active and inactive are the calls of the source. No cut-off for these calls is given here.

Key:
SK-MEL-28 [1] = experiment: Antiproliferative activity against human SK-MEL-28 cells assessed as cell growth inhibition incubated for 48 hrs by MTT assay; assay type: functional, cell-based; settings: SK-MEL-28, 48 h
SK-MEL-5 [2] = experiment: Antiproliferative activity against human SK-MEL-5 cells assessed as cell growth inhibition incubated for 48 hrs by MTT assay; assay type: functional, cell-based; settings: SK-MEL-5, 48 h
A-375 [3] = experiment: Antiproliferative activity against human A375 cells assessed as cell growth inhibition incubated for 48 hrs by MTT assay; assay type: functional, cell-based; settings: A-375, 48 h
SK-MEL-5 [4] = experiment: Potency index, ratio of carvedilol IC50 to test compound IC50 for antiproliferative activity against human SK-MEL-5 cells; assay type: functional
SK-MEL-28 [5] = experiment: Antimigratory activity against human SK-MEL-28 cells assessed as reduction in cell migration at 1 uM measured after 48 hrs by wound healing assay; assay type: functional, cell-based
SK-MEL-28 [6] = experiment: Potency index, ratio of carvedilol IC50 to test compound IC50 for antiproliferative activity against human SK-MEL-28 cells; assay type: functional
A-375 [7] = experiment: Potency index, ratio of carvedilol IC50 to test compound IC50 for antiproliferative activity against human A375 cells; assay type: functional
SK-MEL-28 [8] = experiment: Cell cycle arrest in human SK-MEL-28 cells assessed as accumulation at G2/M phase after 24 hrs by […] dye staining based fluorescence assay; assay type: functional
Tubulin (Homo sapiens) = Tubulin (Homo sapiens) (UniProt P68371+Q9H4B7+P0DPH7+P68366+Q13509+Q71U36+P04350+Q3ZCM7+P07437+P68363+Q9BQE3+Q6PEY2+Q13885+Q9BVA1+Q9BUF5); experiment: Inhibition of tubulin in human SK-MEL-28 cells assessed as disruption of microtubule network at 1 to 2 uM by Alexa Fluor 488 and DAPI staining based fluorescence microscopic method; assay type: cell-based
SK-MEL-28 [9] = experiment: Inhibition of colony formation in human SK-MEL-28 cells at 2 uM supplemented with fresh medium containing compound every 72 hrs for 2 weeks by crystal violet staining based assay; assay type: functional
SK-MEL-28 [10] = experiment: Induction of apoptosis in human SK-MEL-28 cells incubated for 24 hrs by Annexin V-FITC/propidium iodide staining based flow cytometric analysis; assay type: functional, cell-based
SK-MEL-28 [11] = experiment: Antiproliferative activity against human SK-MEL-28 cells assessed as cell growth inhibition at 100 uM measured after 48 hrs by MTT assay relative to control; assay type: functional; settings: SK-MEL-28, 48 h
A-375 [12] = experiment: Antiproliferative activity against human A375 cells assessed as cell growth inhibition at 100 uM measured after 48 hrs by MTT assay relative to control; assay type: functional; settings: A-375, 48 h
SK-MEL-5 [13] = experiment: Antiproliferative activity against human SK-MEL-5 cells assessed as cell growth inhibition at 100 uM incubated for 48 hrs by MTT assay relative to control; assay type: functional; settings: SK-MEL-5, 48 h
SK-MEL-28 [14] = experiment: Inhibition of colony formation in human SK-MEL-28 cells at 5 to 100 uM supplemented with fresh medium containing compound every 72 hrs for 2 weeks by crystal violet staining based assay; assay type: functional, cell-based

Row | pIC50 (SK-MEL-28 [1]) | pIC50 (SK-MEL-5 [2]) | pIC50 (A-375 [3]) | Compound | inhibition at 100 µM (SK-MEL-28 [11]) | inhibition at 100 µM (A-375 [12]) | inhibition at 100 µM (SK-MEL-5 [13]) | other results
1 | 4.71 | 4.73 | 4.68 | COc1ccccc1OCCNCC(O)COc1ccc2ccccc2c1 (racemic) |  |  |  | 
2 | 4.61 | 4.58 | 4.50 | OC(COc1cccc2[nH]c3ccccc3c12)CN1CCN(c2ccccn2)CC1 (racemic) |  |  |  | 
3 | 5.42 | 5.50 | 5.25 | OC(CNCc1ccc(-c2ccccc2)cc1)COc1cccc2[nH]c3ccccc3c12 (racemic) |  |  |  | Ratio IC50 (SK-MEL-5 [4]): 15; Activity (SK-MEL-28 [5]): Active; Ratio IC50 (SK-MEL-28 [6]): 15; Ratio IC50 (A-375 [7]): 15
4 | 4.60 | 4.67 | 4.55 | OC(COc1ccc(-c2ccccc2)cc1)CN1CCN(c2ccccn2)CC1 (racemic) |  |  |  | 
5 | 4.81 | 4.91 | 4.85 | OC(COc1ccc(-c2ccccc2)cc1)CN1CCN(c2ccccc2)CC1 (racemic) |  |  |  | 
6 | 5.22 | 5.23 | 5.08 | COc1ccccc1OCCNCC(O)COc1ccc(-c2ccccc2)cc1 (racemic) |  |  |  | 
7 | 5.48 | 5.43 | 5.70 | OC(CNCc1ccc(-c2ccccc2)cc1)COc1cccc(Nc2ccccc2)c1 (racemic) |  |  |  | Activity (SK-MEL-28 [8]): Dose-dependent effect; Activity (SK-MEL-28 [5]): Active; inhibition (Tubulin (Homo sapiens)): Active; inhibition (INH) (SK-MEL-28 [9]): 100%; Activity (SK-MEL-28 [10]): Dose-dependent effect
8 | 4.85 | 4.84 | 4.85 | Cc1ccc2cccc(NCC(O)COc3cccc4[nH]c5ccccc5c34)c2n1 (racemic) |  |  |  | 
9 | < 4.00 | < 4.00 | < 4.00 | CC(C)NCC(O)COc1ccc(CC(N)=O)cc1 (configuration not stated) [ATENOLOL] | 6.9% | 8.6% | 5.2% | 
10 | < 4.00 | < 4.00 | < 4.00 | CC(C)NCC(O)COc1ccc(COCCOC(C)C)cc1 (configuration not stated) [BISOPROLOL] | 6.4% | 28.3% | 14.8% | 
11 | 4.50 | 4.47 | 4.45 | CC(C)NCC(O)COc1cccc2[nH]c3ccccc3c12 (configuration not stated) [CARAZOLOL] |  |  |  | 
12 | 4.81 | 4.86 | 4.89 | COc1ccccc1OCCNCC(O)COc1cccc2[nH]c3ccccc3c12 (configuration not stated) [CARVEDILOL] |  |  |  | inhibition (SK-MEL-28 [14]): Active
13 | < 4.00 | < 4.00 | < 4.00 | COC(=O)CCc1ccc(OCC(O)CNC(C)C)cc1 (configuration not stated) [ESMOLOL] | 25.8% | 22.8% | 31.4% | 
14 | < 4.00 | < 4.00 | < 4.00 | CC(CCc1ccccc1)NCC(O)c1ccc(O)c(C(N)=O)c1 (configuration not stated) [LABETALOL] | 35.6% | 38.1% | 36.2% | 
15 | < 4.00 | < 4.00 | < 4.00 | COCCc1ccc(OCC(O)CNC(C)C)cc1 (configuration not stated) [METOPROLOL] | 30% | 26.3% | 38.8% | 
16 | < 4.00 | < 4.00 | < 4.00 | CC(C)NCC(O)c1ccc(NS(C)(=O)=O)cc1 (configuration not stated) [SOTALOL] | 7.4% | 15.2% | 2.1% | 
17 | < 4.00 | < 4.00 | < 4.00 | CC(C)(C)NC[C@H](O)COc1nsnc1N1CCOCC1 [TIMOLOL] | 18.6% | 22.7% | 33.3% | 
